Assay results published in ChEMBL document CHEMBL1145598, “Discovery and preclinical studies of 5-isopropyl-6-(5-methyl-1,3,4-oxadiazol-2-yl)-N-(2-methyl-1H-pyrrolo[2,3-b]pyridin-5-yl)pyrrolo[2,1-f][1,2,4]triazin-4-amine (BMS-645737), an in vivo active potent VEGFR-2 inhibitor” (Bioorg Med Chem Lett, 2008).
≈ marks a conversion by molar mass, not a printed value.

Key:
[1] = AUC in mouse at 50 mg/kg, po after 4 hrs; format: ADME, organism-based; parameters: time < 4 hr, dose 50 mg/kg, route oral; details: plasma
[2] = Clearance in BALB/c mouse at 5 mg/kg, iv; format: ADME, organism-based; parameters: dose 5 mg/kg, route intravenous; details: in vivo
[3] = Half life in BALB/c mouse at 5 mg/kg, iv; format: ADME, organism-based; parameters: dose 5 mg/kg, route intravenous; details: in vivo
[4] = Total AUC in BALB/c mouse at 30 mg/kg, po; format: ADME, organism-based; parameters: time AUCmax, dose 30 mg/kg, route oral; details: in vivo
[5] = Oral bioavailability in BALB/c mouse at 30 mg/kg; details: in vivo
[6] = molecular target: Cytochrome P450 3A4 (Homo sapiens, UniProt P08684); test: Inhibition of CYP3A4; format: ADME
Sequence of Cytochrome P450 3A4 (P08684 whole entry): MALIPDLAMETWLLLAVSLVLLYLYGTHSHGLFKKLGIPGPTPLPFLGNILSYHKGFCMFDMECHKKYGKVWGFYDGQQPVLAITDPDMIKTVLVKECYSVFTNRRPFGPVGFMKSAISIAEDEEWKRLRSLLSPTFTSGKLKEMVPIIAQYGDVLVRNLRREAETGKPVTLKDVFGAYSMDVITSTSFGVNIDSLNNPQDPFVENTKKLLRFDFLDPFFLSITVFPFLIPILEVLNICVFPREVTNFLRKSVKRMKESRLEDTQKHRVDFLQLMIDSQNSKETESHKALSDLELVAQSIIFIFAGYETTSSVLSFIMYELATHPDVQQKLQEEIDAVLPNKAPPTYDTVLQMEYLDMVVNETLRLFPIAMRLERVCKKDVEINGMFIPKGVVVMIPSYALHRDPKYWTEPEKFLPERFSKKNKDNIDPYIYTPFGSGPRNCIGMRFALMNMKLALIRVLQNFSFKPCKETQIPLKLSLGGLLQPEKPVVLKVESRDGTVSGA

[7] = Mean resident time in BALB/c mouse at 5 mg/kg, iv; format: ADME, organism-based; parameters: dose 5 mg/kg, route intravenous; details: in vivo
[8] = Volume of distribution at steady state in BALB/c mouse at 5 mg/kg, iv; format: ADME, organism-based; parameters: dose 5 mg/kg, route intravenous; details: in vivo, read-out: Vdss
[9] = Total AUC in BALB/c mouse at 5 mg/kg, iv; format: ADME, organism-based; parameters: time AUCmax, dose 5 mg/kg, route intravenous; details: in vivo
[10] = Half life in BALB/c mouse at 30 mg/kg, po; format: ADME, organism-based; parameters: dose 30 mg/kg, route oral; details: in vivo
[11] = molecular target: Platelet-derived growth factor receptor beta (Homo sapiens, UniProt P09619); test: Inhibition of PDGFRbeta
Sequence of Platelet-derived growth factor receptor beta (P09619 whole entry): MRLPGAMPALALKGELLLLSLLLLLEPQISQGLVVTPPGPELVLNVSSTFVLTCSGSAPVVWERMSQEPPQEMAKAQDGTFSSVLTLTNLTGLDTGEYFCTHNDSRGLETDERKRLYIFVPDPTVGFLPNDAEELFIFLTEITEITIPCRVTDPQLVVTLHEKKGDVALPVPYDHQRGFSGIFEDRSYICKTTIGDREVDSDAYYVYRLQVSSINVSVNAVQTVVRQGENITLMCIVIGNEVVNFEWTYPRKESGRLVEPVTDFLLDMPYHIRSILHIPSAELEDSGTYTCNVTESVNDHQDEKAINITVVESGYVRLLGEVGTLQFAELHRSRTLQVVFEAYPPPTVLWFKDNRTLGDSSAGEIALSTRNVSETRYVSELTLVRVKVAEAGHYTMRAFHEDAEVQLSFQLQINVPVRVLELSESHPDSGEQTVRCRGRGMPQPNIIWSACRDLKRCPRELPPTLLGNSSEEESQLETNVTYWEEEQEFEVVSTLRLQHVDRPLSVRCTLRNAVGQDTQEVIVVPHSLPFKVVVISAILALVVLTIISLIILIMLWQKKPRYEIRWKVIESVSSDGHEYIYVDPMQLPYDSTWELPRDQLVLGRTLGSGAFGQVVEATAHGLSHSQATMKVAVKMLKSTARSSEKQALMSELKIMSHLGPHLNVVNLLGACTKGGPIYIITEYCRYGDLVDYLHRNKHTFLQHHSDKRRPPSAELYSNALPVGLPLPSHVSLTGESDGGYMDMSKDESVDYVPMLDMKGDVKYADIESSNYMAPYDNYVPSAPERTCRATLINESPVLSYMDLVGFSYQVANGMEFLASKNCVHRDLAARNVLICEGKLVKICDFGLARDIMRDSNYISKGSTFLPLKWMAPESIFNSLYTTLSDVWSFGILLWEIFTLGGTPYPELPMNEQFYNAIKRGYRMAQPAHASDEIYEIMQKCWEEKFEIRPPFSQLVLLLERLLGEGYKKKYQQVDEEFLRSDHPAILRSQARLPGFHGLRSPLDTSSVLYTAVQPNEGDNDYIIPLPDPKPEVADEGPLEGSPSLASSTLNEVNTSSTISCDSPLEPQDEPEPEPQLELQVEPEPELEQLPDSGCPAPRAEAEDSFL

[12] = molecular target: Epidermal growth factor receptor (Homo sapiens, UniProt P00533); test: Inhibition of EGFR
Sequence of Epidermal growth factor receptor (P00533 whole entry): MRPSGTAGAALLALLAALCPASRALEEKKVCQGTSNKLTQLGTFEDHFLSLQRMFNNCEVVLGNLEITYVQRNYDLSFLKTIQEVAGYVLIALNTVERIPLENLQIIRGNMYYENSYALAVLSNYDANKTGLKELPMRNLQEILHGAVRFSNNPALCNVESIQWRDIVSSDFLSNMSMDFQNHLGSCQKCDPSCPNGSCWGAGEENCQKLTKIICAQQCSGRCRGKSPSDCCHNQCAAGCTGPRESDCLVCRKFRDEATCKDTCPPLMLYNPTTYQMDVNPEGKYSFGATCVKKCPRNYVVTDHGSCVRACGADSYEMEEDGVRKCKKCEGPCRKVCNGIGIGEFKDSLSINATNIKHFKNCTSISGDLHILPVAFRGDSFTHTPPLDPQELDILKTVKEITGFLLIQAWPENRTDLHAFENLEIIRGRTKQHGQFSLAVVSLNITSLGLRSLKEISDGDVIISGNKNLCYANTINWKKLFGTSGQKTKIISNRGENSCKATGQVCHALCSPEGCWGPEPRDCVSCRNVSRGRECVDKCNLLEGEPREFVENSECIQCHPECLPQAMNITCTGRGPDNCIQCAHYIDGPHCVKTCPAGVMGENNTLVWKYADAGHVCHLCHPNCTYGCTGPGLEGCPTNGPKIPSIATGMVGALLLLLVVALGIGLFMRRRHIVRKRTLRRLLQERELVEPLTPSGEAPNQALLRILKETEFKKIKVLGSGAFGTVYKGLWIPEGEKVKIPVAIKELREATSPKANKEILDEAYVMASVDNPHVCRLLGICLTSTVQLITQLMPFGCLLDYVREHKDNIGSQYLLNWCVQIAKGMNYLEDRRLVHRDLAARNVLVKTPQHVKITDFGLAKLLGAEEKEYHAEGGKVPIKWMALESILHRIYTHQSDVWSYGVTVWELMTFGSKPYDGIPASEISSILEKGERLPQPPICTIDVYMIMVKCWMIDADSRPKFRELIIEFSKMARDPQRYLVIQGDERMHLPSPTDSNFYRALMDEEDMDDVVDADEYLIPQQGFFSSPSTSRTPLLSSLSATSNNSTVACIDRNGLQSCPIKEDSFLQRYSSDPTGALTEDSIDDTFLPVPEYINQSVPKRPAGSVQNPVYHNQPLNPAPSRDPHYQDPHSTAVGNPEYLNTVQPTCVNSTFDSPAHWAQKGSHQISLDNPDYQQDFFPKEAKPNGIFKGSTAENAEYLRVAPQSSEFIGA

[13] = molecular target: Protein kinase C alpha type (Homo sapiens, UniProt P17252); test: Inhibition of PKCalpha
[14] = molecular target: hERG (KCNH2) (Homo sapiens, UniProt Q12809); test: Inhibition of human ERG at 10 uM by patch clamp method
Sequence of hERG (KCNH2) (Q12809 whole entry): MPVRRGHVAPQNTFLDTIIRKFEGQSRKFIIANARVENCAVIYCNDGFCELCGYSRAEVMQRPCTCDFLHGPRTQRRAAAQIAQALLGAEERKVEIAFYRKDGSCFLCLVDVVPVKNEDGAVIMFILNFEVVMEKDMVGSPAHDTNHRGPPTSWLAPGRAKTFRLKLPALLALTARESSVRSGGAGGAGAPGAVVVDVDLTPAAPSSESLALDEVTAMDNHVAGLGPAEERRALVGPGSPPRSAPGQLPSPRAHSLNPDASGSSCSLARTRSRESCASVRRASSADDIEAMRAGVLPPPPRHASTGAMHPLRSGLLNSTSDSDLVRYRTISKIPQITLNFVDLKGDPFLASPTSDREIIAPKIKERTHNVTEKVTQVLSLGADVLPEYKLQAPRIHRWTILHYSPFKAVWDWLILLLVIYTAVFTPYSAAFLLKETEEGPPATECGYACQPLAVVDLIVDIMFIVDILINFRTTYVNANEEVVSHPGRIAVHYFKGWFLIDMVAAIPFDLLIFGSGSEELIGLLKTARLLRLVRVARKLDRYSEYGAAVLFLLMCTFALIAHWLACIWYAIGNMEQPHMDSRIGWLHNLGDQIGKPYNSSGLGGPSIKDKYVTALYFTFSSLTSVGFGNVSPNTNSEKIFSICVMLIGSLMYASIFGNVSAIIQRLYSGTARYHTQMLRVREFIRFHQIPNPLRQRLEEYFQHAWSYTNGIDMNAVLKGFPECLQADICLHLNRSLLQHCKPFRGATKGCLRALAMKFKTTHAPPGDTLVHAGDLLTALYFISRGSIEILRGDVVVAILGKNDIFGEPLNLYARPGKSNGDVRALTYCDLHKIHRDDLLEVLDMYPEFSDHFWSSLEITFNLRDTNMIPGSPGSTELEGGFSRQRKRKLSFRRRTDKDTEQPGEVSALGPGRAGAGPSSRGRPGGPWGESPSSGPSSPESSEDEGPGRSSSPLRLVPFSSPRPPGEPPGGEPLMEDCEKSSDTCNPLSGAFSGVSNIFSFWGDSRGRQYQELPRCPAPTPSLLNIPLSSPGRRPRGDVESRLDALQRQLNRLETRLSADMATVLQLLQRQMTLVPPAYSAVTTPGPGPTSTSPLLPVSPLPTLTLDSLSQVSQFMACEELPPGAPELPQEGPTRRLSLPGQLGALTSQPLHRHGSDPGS

[15] = molecular target: Fibroblast growth factor receptor 1 (Homo sapiens, UniProt P11362); test: Inhibition of FGFR1
Sequence of Fibroblast growth factor receptor 1 (P11362 whole entry): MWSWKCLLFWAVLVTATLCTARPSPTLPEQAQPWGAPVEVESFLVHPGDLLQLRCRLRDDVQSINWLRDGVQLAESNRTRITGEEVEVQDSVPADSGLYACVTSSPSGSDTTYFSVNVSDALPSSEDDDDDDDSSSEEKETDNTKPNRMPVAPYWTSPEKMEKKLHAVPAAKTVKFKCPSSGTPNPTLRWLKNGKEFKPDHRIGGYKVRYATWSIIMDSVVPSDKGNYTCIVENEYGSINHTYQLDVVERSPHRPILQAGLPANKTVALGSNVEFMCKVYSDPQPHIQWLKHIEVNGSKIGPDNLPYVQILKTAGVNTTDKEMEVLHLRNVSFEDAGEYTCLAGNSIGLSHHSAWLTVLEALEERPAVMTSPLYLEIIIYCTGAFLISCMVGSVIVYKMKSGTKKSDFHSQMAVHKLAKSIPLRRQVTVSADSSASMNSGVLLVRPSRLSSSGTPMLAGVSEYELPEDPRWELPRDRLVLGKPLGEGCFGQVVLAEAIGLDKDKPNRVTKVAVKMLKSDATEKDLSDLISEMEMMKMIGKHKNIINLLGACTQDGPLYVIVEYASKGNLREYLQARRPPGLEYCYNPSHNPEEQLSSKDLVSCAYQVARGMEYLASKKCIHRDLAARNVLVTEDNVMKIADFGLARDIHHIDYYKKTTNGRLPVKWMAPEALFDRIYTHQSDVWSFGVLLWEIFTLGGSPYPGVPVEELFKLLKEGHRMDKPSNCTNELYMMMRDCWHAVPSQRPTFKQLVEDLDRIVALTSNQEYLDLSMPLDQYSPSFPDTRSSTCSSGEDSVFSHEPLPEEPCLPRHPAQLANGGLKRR

[16] = molecular target: T1, Tyrosine-protein kinase JAK3 (Homo sapiens, UniProt P52333); test: Inhibition of JAK3
T1 sequence (P52333 whole entry): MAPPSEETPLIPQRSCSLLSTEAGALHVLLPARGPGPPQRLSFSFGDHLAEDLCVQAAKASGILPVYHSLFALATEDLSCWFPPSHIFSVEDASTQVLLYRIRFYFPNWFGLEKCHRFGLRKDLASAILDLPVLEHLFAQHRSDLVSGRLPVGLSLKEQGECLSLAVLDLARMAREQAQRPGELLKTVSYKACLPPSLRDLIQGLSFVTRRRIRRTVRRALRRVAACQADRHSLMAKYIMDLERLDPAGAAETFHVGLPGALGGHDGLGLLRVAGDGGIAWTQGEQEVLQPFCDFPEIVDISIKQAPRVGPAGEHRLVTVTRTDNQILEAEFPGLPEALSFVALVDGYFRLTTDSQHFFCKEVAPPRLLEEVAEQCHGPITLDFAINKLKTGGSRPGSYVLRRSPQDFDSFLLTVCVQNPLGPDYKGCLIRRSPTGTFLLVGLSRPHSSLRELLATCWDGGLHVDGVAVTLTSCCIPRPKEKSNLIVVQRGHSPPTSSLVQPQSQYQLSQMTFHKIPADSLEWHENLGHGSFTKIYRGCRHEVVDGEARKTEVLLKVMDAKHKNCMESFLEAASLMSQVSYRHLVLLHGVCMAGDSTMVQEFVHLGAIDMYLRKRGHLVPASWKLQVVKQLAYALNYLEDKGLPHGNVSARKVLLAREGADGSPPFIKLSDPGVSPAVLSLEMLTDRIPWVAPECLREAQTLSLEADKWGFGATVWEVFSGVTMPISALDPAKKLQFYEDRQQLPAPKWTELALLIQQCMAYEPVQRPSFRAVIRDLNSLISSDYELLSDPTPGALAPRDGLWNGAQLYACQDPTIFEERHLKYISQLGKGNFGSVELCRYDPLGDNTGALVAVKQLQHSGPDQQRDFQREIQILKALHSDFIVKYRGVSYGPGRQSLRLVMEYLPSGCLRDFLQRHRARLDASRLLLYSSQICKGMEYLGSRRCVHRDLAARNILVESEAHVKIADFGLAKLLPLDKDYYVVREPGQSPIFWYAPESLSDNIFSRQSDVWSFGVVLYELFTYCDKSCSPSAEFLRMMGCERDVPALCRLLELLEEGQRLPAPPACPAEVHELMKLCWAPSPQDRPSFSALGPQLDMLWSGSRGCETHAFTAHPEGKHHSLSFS

[17] = molecular target: Vascular endothelial growth factor receptor 2 (Homo sapiens, UniProt P35968)
Description: Inhibition of human VEGFR2

[18] = molecular target: Tyrosine-protein kinase Lck (Homo sapiens, UniProt P06239); test: Inhibition of LCK
[19] = molecular target: Receptor tyrosine-protein kinase erbB-2 (Homo sapiens, UniProt P04626); test: Inhibition of HER2
[20] = system: HUVEC; test: Antiproliferative activity against VEGF-induced HUVEC; format: functional, cell-based; details: Homo sapiens
[21] = system: NCI-N87; test: Antitumor activity against human N87 cells; format: functional, cell-based
[22] = molecular target: Vascular endothelial growth factor receptor 1 (Homo sapiens, UniProt P17948); test: Inhibition of VEGFR1
[23] = system: Mus musculus; test: Toxicity in human L2987 cells xenografted mouse assessed as weight loss at 7.5 mg/kg, po; format: organism-based; parameters: dose 7.5 mg/kg, route oral; details: in vivo
[24] = system: Mus musculus; test: Toxicity in human L2987 cells xenografted mouse assessed as weight loss at 15 mg/kg, po; format: organism-based; parameters: dose 15 mg/kg, route oral; details: in vivo
[25] = Cmax in human L2987 cells xenografted mouse at 15 mg/kg, po after 24 hrs; format: ADME, organism-based; parameters: dose 15 mg/kg, route oral; details: in vivo
[26] = molecular target: Voltage-gated inwardly rectifying potassium channel KCNH2 (Homo sapiens, UniProt Q12809); test: Inhibition of human ERG by patch clamp method
[27] = AUC in human L2987 cells xenografted mouse at 7.5 mg/kg, po after 24 hrs; format: ADME, organism-based; parameters: time < 24 hr, dose 7.5 mg/kg, route oral; details: in vivo
[28] = system: Mus musculus; test: Toxicity in human L2987 cells xenografted mouse assessed as morbidity at 7.5 mg/kg, po; format: organism-based; parameters: dose 7.5 mg/kg, route oral; details: in vivo
[29] = system: L2987; test: Antitumor activity against human L2987 cells xenografted mouse at 7.5 mg/kg, po after 4 days; format: functional
[30] = Oral bioavailability in rat at 30 mg/kg; format: ADME, organism-based; details: in vivo
[31] = system: HUVEC; test: Antiproliferative activity against bFGF-induced HUVEC; format: functional, cell-based; details: Homo sapiens
[32] = Cmax in human L2987 cells xenografted mouse at 7.5 mg/kg, po after 24 hrs; format: ADME, organism-based; parameters: dose 7.5 mg/kg, route oral; details: in vivo
[33] = Aqueous solubility at pH 2; format: physicochemical; details: buffer
[34] = system: Mus musculus; test: Toxicity in human L2987 cells xenografted mouse assessed as morbidity at 15 mg/kg, po; format: organism-based; parameters: dose 15 mg/kg, route oral; details: in vivo
[35] = Tmax in BALB/c mouse at 30 mg/kg, po; details: in vivo
[36] = Antitumor activity against human H1993 cells; format: functional, cell-based; details: NCI-H1993
[37] = system: Rattus norvegicus; test: AUC in rat at 30 mg/kg; format: ADME, organism-based, Plasma; parameters: dose 30 mg/kg; details: in vivo
[38] = Aqueous solubility at pH 6.5; format: physicochemical; details: buffer
[39] = AUC in human L2987 cells xenografted mouse at 15 mg/kg, po after 24 hrs; format: ADME, organism-based; parameters: time < 24 hr, dose 15 mg/kg, route oral; details: in vivo
[40] = system: L2987; test: Antitumor activity against human L2987 cells xenografted in mouse; format: functional, cell-based
[41] = molecular target: Vascular endothelial growth factor receptor 2 (Mus musculus, UniProt P35918); test: Inhibition of mouse Flk1
[42] = system: L2987; test: Antitumor activity against human L2987 cells xenografted mouse at 15 mg/kg, po after 4 days; format: functional
[43] = system: L2987; test: Antitumor activity against po dosed human L2987 cells xenografted mouse after 24 hrs; format: functional
[44] = Antitumor activity against human GTL16 cells; format: functional, cell-based; details: GTL 16

Cc1cc2c(F)c(Oc3ncnn4cc(OC[C@@H](C)O)c(C)c34)ccc2[nH]1 [BRIVANIB]
AUC at 4 h [1]: 136 µM·h

Cc1cc2c(F)c(Oc3ncnn4cc(OC[C@@H](C)O)c(C)c34)cnc2[nH]1
AUC at 4 h [1]: 29.6 µM·h

CNc1nnc(-c2cn3ncnc(Nc4cnc5[nH]c(C)cc5c4)c3c2C(C)C)o1
clearance [2]: 4.5 mL/min/kg
half-life [3]: 2.8 h
AUC [4]: 272 µM·h
bioavailability [5]: 99%
IC50 [6]: 6400 nM
MRT [7]: 4.3 h
Vd [8]: 1.2 L/kg
AUC [9]: 46 µM·h
half-life [10]: 2.8 h

Cc1c(OC[C@@H](C)O)cn2ncnc(Oc3cnc4[nH]ccc4c3F)c12
AUC at 4 h [1]: 11.1 µM·h

Cc1nnc(-c2cn3ncnc(Nc4cnc5[nH]ccc5c4)c3c2C(C)C)o1
clearance [2]: 18 mL/min/kg
IC50 [11]: 389 nM
IC50 [12]: 150 nM
IC50 [13]: > 50000 nM
inhibition at 10 µM [14]: 29%
half-life [3]: 1.2 h
AUC [4]: 21.7 µM·h
IC50 [15]: 61 nM
IC50 [16]: > 50000 nM
IC50 [17]: 31 nM
IC50 [18]: 185 nM
bioavailability [5]: 29%
IC50 [6]: > 40000 nM
MRT [7]: 1.7 h
IC50 [19]: 500 nM
Vd [8]: 1.9 L/kg
AUC [9]: 12.4 µM·h
half-life [10]: 4.5 h

Cc1cc2cc(Nc3ncnn4cc(-c5nnc(C)o5)c(C(C)C)c34)cnc2[nH]1
clearance [2]: 8.5 mL/min/kg
IC50 [11]: > 2000 nM
IC50 [20]: 13 nM
IC50 [12]: > 1000 nM
IC50 [13]: > 50000 nM
IC50 [21]: > 10000 nM
IC50 [22]: 268 nM
inhibition at 10 µM [14]: 64%
Activity [23]: Non-toxic
Activity [24]: Non-toxic
Cmax [25]: 2640 nM
IC50 [26]: 6600 nM
AUC at 24 h [27]: 11 µM·h
Activity [28]: Non-toxic
half-life [3]: 2.9 h
Activity [29]: >=50%
bioavailability [30]: 68%
IC50 [31]: 138 nM
AUC [4]: 182 µM·h
Cmax [32]: 1030 nM
IC50 [15]: 78 nM
IC50 [16]: > 50000 nM
solubility [33]: 400 µg/mL (≈ 1030 µM)
Activity [34]: Non-toxic
IC50 [17]: 25 nM
IC50 [18]: > 2000 nM
Tmax [35]: 0.5 h
IC50 [36]: > 10000 nM
bioavailability [5]: > 100%
AUC [37]: 287 µM·h
solubility [38]: 2.8 µg/mL (≈ 7.21 µM)
AUC at 24 h [39]: 30 µM·h
IC50 [6]: 11500 nM
MRT [7]: 2.7 h
IC50 [19]: > 5000 nM
Vd [8]: 1.4 L/kg
IC50 [40]: > 2500 nM
AUC [9]: 25 µM·h
IC50 [41]: 53 nM
Activity [42]: >=50%
half-life [10]: 2.5 h
Activity [43]: Dose-dependent effect
minimal effective dose ([43]; read-out: MED): 7.5 mg/kg
IC50 [44]: > 10000 nM
